In paper PMC9743094, “Synthesis and Evaluation of Polymyxins Bearing Reductively Labile Disulfide-Linked Lipids” (Journal of Medicinal Chemistry, 2022):
In brackets after ≈: the same amount, converted by molar mass. Starred links: 1 amine or outer side, 2 acyl side, 3 side chain; linkers in the order of their positions; H or OH if unused. Positions of bridges follow the written chain, without caps; N, C: chain ends. Non-standard residues stand in square brackets, D forms with d. Residues, ends and D or L forms follow the SMILES beside them. *: point of attachment. X2 = CC(C)CCCCC[C@@H](N[*:1])C(=O)[*:2]; S(3-Methylbutyl) = CC(C)CCS*; Dab = NCC[C@H](N)C(=O)O

Tests used:
[1] = tested on: differentiated conditionally immortalized PTECs (ciPTECs, OAT-1); assay: ciPTEC toxicity assay (PrestoBlue); assay type: cell-based, human; details: for TC50, Day 2: 24 h
Procedure: ciPTECs (OAT-1) cells,[52],[53] grown to 90–100% confluence, were washed by Hanks’ balanced salt solution (HBSS; Gibco, Life Technologies, Paisley, U.K.) and detached by accutase (4 mL) for 5 min at 37 °C. The cells were then suspended in fresh medium (DMEM/F-12, supplemented with 10% fetal calf serum, insulin (5 μg/mL), transferrin (5 μg/mL), selenium (5 μg/mL) hydrocortisone (35 ng/mL), Epidermal Growth Factor (10 ng/mL) and tri-iodothyronine (40 pg/mL)). Cell density was adjusted to 2.0 × 10^5 cells/mL, of which 100 μL was added to each well of a 96-well plate. The cells were incubated for 24 h at 33 °C, followed by 6 days at 37 °C, in a humidified atmosphere containing 5% (v/v) CO2. The medium was refreshed every second or third day.
Compounds were dissolved and serially diluted in serum-free medium. Differentiated cells were washed once with HBSS and serially diluted compounds (80 μL/well) were transferred to the ciPTEC-containing plate. Compounds were incubated for 24 h at 37 °C; the cells were washed by HBSS, followed by incubation with 10% PrestoBlue cell viability reagent (Thermo Scientific, Vienna, Austria) in HBSS at 37 °C in the dark. Fluorescence was recorded (excitation: 530 nm, emission: 590 nm). Raw data are corrected for PrestoBlue background fluorescence and reported relative to the no-treatment control (cells with medium only). Viability data were fitted with GraphPad Prism software (version 5.03; GraphPad Software, La Jolla, CA), by nonlinear regression with 0 as bottom constraint. Presented data are based on triplicates.
Toxicity assessment on PTECs
Table S1. TC50 values for polymyxin analogues. Toxicity assessment on proximal tubular epithelial cells
performed using PrestoBlue™ assay. TC50 values are derived after non-linear regression analysis on cell viability
correspond to data obtained from 2 different batches of cells/analyses on different days. As the value for
polymyxin B differs 2-fold, values in the manuscript are presented relative to the polymyxin B value.
Compound TC50 (µ M) Compound TC50 (µ M)
Polymyxin B 80 Polymyxin B 41
Figure S3. Representative traces of ciPTECs’ viability after incubation with analogues for 24 hours. Shown data are based on […]

A. baumannii BAA-747 = assay type: cell-based; details: BAA-747
Procedure: (§1) Minimum inhibitory concentrations (MICs) on relevant Gram-negative bacteria were determined by broth microdilution, in accordance with CLSI guidelines. Indicated bacteria were taken from glycerol stocks and incubated overnight on blood agar at 37 °C. Well-isolated colonies were taken, suspended in TSB (5 mL), and grown to an OD600 of 0.5. Compounds to be tested were dissolved in DMSO (6.4 mg/mL), diluted in cation-adjusted Mueller–Hinton Broth (CAMHB) (12.5 and 20 μg/mL Mg^2+ and Ca^2+, respectively), and diluted serially on polypropylene microtiter plates. To the diluted compounds (50 μL per well) was added 50 μL of relevant bacterial suspension, to yield a final concentration of 10^6 CFU/mL. Plates were covered by adhesive gas-permeable membranes and incubated at 37 °C. MIC was read out as the lowest concentration that inhibited visual bacterial growth. Shown values are consistent results from at least duplicate experiments.
(§2) Bacterial strains used for MIC assays and extended MIC assessment
(§3) Strains: The following strains were obtained from BEI Resources, NIAID, NIH: E. Coli M0072, strain
(§4) Table S2. […] Values are given in μg/mL.
(§5) Species Strain ID Resistance Polymyxin B 18b 23a 24a

A. baumannii RUH-134 = assay type: cell-based; details: RUH-134
Procedure: as §1, §2, §3, §4, §5

E. coli 1793 = assay type: cell-based; details: 1793
Procedure: as §1, §2, §3, §4, §5

E. coli JS136 = assay type: cell-based; details: JS136
Procedure: as §1, §2, §3, §4, §5

E. coli M0072 = assay type: cell-based; details: M0072
Procedure: as §1, §2, §3, §4, §5

K. pneumoniae ATCC 29665 = assay type: cell-based; details: ATCC 29665
Procedure: as §1, §2, §3, §4, §5

K. pneumoniae KP1.53 = assay type: cell-based; details: KP1.53
Procedure: as §1, §2, §3, §4, §5

K. pneumoniae RC0045 = assay type: cell-based; details: RC0045
Procedure: as §1, §2, §3, §4, §5

P. aeruginosa 2018-007 = assay type: cell-based; details: 2018-007
Procedure: as §1, §2, §3, §4, §5

P. aeruginosa 2251 = assay type: cell-based; details: 2251
Procedure: as §1, §2, §3, §4, §5

P. aeruginosa ATCC 10145 = assay type: cell-based; details: ATCC 10145
Procedure: as §1, §2, §3, §4, §5

P. aeruginosa M120 = assay type: cell-based; details: M120
Procedure: as §1, §2, §3, §4, §5

A. baumanii (ATCC 17961) = assay type: cell-based; details: ATCC 17961, 2 h
Procedure: as §1
(§6) Table S3. MIC values [µg/mL] and relative toxicity values for disulfide containing polymyxin derivative 18b and
(§7) non-disulfide containing analogue 45. […]

P. aeruginosa (PAO1) = assay type: cell-based; details: PAO1, 2 h
Procedure: as §1, §6, §7

[2] = tested on: A. baumannii (ATCC 19606); assay type: cell-based; details: ATCC 19606
Procedure: as §1

[3] = tested on: K. pneumoniae (ATCC 13883); assay type: cell-based; details: ATCC 13883
Procedure: as §1

[4] = tested on: P. aeruginosa (ATCC 27853); assay type: cell-based; details: ATCC 27853
Procedure: as §1

A. baumannii NRZ-00687 = assay type: cell-based; details: NRZ-00687
Procedure: as §1, §2, §3, §4, §5

CC(C)CCSSC[C@@H](N)C(=O)N[C@H](C(=O)N[C@@H](CCN)C(=O)N[C@H]1CCNC(=O)[C@H]([C@@H](C)O)NC(=O)[C@H](CCN)NC(=O)[C@H](CCN)NC(=O)[C@H](CC(C)C)NC(=O)[C@@H](Cc2ccccc2)NC(=O)[C@H](CCN)NC1=O)[C@@H](C)O [Compound 18b] (H-[dC](S(3-Methylbutyl))T[Dab][Dab][Dab][dF]L[Dab][Dab]T; lactam 4-C)
TC50, Day 1 [1]: 345 µM
ciPTEC Toxicity Index (relative to polymyxin B) [1]: 4.7
TC50, Day 2 [1]: 192 µM
MIC A. baumannii BAA-747 (A. baumannii BAA-747): 0.5 µg/mL (≈ 0.428 µM)
MIC A. baumannii RUH-134 (A. baumannii RUH-134): 1 µg/mL (≈ 0.856 µM)
MIC E. coli 1793 (E. coli 1793): 0.25 µg/mL (≈ 0.214 µM)
MIC E. coli JS136 (E. coli JS136): 0.5 µg/mL (≈ 0.428 µM)
MIC E. coli M0072 (E. coli M0072): 0.5 µg/mL (≈ 0.428 µM)
MIC K. pneumoniae ATCC 29665 (K. pneumoniae ATCC 29665): 0.5 µg/mL (≈ 0.428 µM)
MIC K. pneumoniae KP1.53 (K. pneumoniae KP1.53): 1 µg/mL (≈ 0.856 µM)
MIC K. pneumoniae RC0045 (K. pneumoniae RC0045): 0.5 µg/mL (≈ 0.428 µM)
MIC P. aeruginosa 2018-007 (P. aeruginosa 2018-007): 2 µg/mL (≈ 1.71 µM)
MIC P. aeruginosa 2251 (P. aeruginosa 2251): 2 µg/mL (≈ 1.71 µM)
MIC P. aeruginosa ATCC 10145 (P. aeruginosa ATCC 10145): 2 µg/mL (≈ 1.71 µM)
MIC P. aeruginosa M120 (P. aeruginosa M120): 2 µg/mL (≈ 1.71 µM)
MIC A. baumanii (ATCC 17961) (A. baumanii (ATCC 17961)): 0.25 µg/mL (≈ 0.214 µM)
MIC P. aeruginosa (PAO1) (P. aeruginosa (PAO1)): 1 µg/mL (≈ 0.856 µM)

CC(C)CCCCC[C@@H](N)C(=O)N[C@H](C(=O)N[C@@H](CCN)C(=O)N[C@H]1CCNC(=O)[C@H]([C@@H](C)O)NC(=O)[C@H](CCN)NC(=O)[C@H](CCN)NC(=O)[C@H](CC(C)C)NC(=O)[C@@H](Cc2ccccc2)NC(=O)[C@H](CCN)NC1=O)[C@@H](C)O [Compound 45] (H-[X2]T[Dab][Dab][Dab][dF]L[Dab][Dab]T; lactam 4-C)
MIC A. baumannii (ATCC 19606) [2]: 0.25 µg/mL (≈ 0.221 µM)
MIC K. pneumoniae (ATCC 13883) [3]: ≤ 0.25 µg/mL
MIC P. aeruginosa (ATCC 27853) [4]: 1 µg/mL (≈ 0.883 µM)
ciPTEC Toxicity Index (relative to polymyxin B) [1]: 2.0
TC50, Day 2 [1]: 82 µM
MIC A. baumannii NRZ-00687 (A. baumannii NRZ-00687): 0.5 µg/mL (≈ 0.442 µM)
MIC A. baumanii (ATCC 17961) (A. baumanii (ATCC 17961)): 0.25 µg/mL (≈ 0.221 µM)
MIC P. aeruginosa (PAO1) (P. aeruginosa (PAO1)): 1 µg/mL (≈ 0.883 µM)
